The source of these data is US7550624B2, “Pharmaceutically active salts and esters of 1-dimethylamino-3-(3-methoxyphenyl)-2-methylpentan-3-ol and 3- (3-dimethylamino-1-ethyl-1-hydroxy-2-methylpropyl)-phenol and methods of using same” (Gruenenthal GmbH, priority 2002, dated 2009).

Molecules are shown by their SMILES. Marks after values point to notes of the source that are not given here.

This experiment concerns female Sprague-Dawley rats. As to the kind of experiment: Cystometry tests on conscious fresh rats. The class given is in vivo, rat. The note with it: for effect on the bladder regulation (in words): iv, cystometric parameters. On the procedure: Cystometry investigations were carried out on fresh female Sprague-Dawley rats according to the method of Ishizuka et. al. ((1997), Naunyn-Schmiedeberg's Arch. Pharmacol. 355: 787-793). Three days after implantation of bladder and venous catheters the animals were investigated in the conscious state while freely moving. The bladder catheter was connected to a pressure gauge and an injection pump. The animals were placed in metabolic cages that enable the volume of urine to be measured. Physiological saline solution was infused (10 ml/hour) into the emptied bladder and the bladder pressure and volume of urine were continuously recorded. After a stabilisation phase a 20-minute phase was recorded that was characterised by normal, reproducible micturition cycles. The following parameters among others were measured: • threshold pressure TP, bladder pressure immediately before micturition, • bladder capacity BC, residual volume after prior micturition plus volume of infused solution during the filling phase, • intercontraction interval ICI, i.e. the time interval between consecutive micturition.
An increase in the threshold pressure (TP) indicates an important therapeutic effect in one of the medical conditions covered by the invention. Also, the intercontraction interval (ICI) is an important parameter for measuring the physiological effectiveness of a substance in the treatment of urinary incontinence, as is the bladder capacity (BC). In this connection, on account of the widely differing causes of the symptoms of these disease patterns it is not necessary to influence positively all three parameters in order for a medicament to be effective.
After recording three reproducible micturition cycles to provide a baseline value, the test substances 1 (1.0 mg/kg), 2 (0.1; 0.3 and 0.5 mg/kg), 21 (0.5 mg/kg) and 7 (0.3 mg/kg) in a vehicle comprising 0.9% NaCl were applied intravenously and the effect on the cystometric parameters was recorded at 90 to 120 minutes. In the effect maximum the mean value of 3 micturition cycles was determined and recorded as a percentage change compared to the baseline value (Table 1).

Setting [1] is: 0.3 mg/kg iv, effect maximum, mean of 3 micturition cycles.
The mark [2] stands for this setting: 0.5 mg/kg iv, effect maximum, mean of 3 micturition cycles.

Consider `CC[C@](O)(c1cccc(OC)c1)[C@H](C)CN(C)C.Cl` (racemic) [Compound 1, (2RS,3RS)-1-dimethylamino-3-(3-methoxyphenyl)-2-methylpentan-3-ol, hydrochloride], for which the “BC Bladder Capacity (change compared to the baseline value)” value (1.0 mg/kg iv, effect maximum, mean of 3 micturition cycles) is reported as “+31%**”.

On to `CCC(O)(c1cccc(O)c1)C(C)CN(C)C.Cl` (racemic) [Compound 7, (2RS,3RS)-3-(3-dimethylamino-1-ethyl-1-hydroxy-2-methylpropyl)-phenol, hydrochloride], for which, under setting [1], the “BC Bladder Capacity (change compared to the baseline value)” value is reported as “+32%**” and the “ICI Inter-Contraction Interval (change compared to the baseline value)” value is reported as “+2%*”.

As to `CC[C@](O)(c1cccc(OC)c1)[C@H](C)CN(C)C.Cl` [Compound 2, (+)-(2R,3R)-1-dimethylamino-3-(3-methoxyphenyl)-2-methylpentan-3-ol, hydrochloride], the “effect on the bladder regulation (in words)” value is listed as “very effective”. Besides, for the setting “0.1 mg/kg iv, effect maximum, mean of 3 micturition cycles”, the “BC Bladder Capacity (change compared to the baseline value)” value is reported as “+7.8%**”. Moreover, the “BC Bladder Capacity (change compared to the baseline value)” value under setting [1] was “+33%**”. The “BC Bladder Capacity (change compared to the baseline value)” value under setting [2] is “+20.6%**”.

Consider `CC[C@@](O)(c1cccc(OC)c1)[C@@H](C)CN(C)C.Cl` [Compound 21, (−)-(2S,3S)-1-dimethylamino-3-(3-methoxyphenyl)-2-methylpentan-3-ol, hydrochloride], for which the “effect on the bladder regulation (in words)” value is on record as “does not exhibit such a marked effect”. Besides, under setting [2], the “BC Bladder Capacity (change compared to the baseline value)” value was “+3%**” and the “TP Threshold Pressure (change compared to the baseline value)” value is recorded as −1.1%**.
